Reference: patent publication US8097728B2, “Iminosugar compounds with antiflavirus activity” (Philadelphia Health & Education Corporation, priority 2007, dated 2012)

Experiments:
[1] = system: HBV; assay: HBV antigen assay: LHBs and MHBs secreted by HepG2.2.15 cells, immunoblot; assay type: cell-based, Hepatitis B virus; details: 6000 uM (6 mM), 7 days, FIG. 6B
Procedure: MHBs and LHBs are HBV envelope proteins that are sensitive to glucosidase inhibition and inhibition of these important viral glycoproteins serves as a surrogate for HBV growth. […] To assess the activity of this compound in the context of viral replication, HepG2 2.2.15 cells were incubated with the indicated DNJ derived compound. HepG 2.2.15 cells secrete readily detectable amounts of MHBs and LHBs into the culture medium. After 7 days of incubation, the amount of HBV M and L in the culture medium was determined by western blot. […] The nature of the selective antiviral activity is not known, but may be due to cell specific activity since HBV is studied in human liver derived hepatoblastoma HepG2 cells and BVDV and WNV were studied in MDBK and BHK cells, respectively.
HBV antigen assay: Antiviral activity against HBV was determined using HepG2.2.15 cells, which contain a dimer of the HBV genome and express all viral gene products, including envelope glycoproteins (Sells, Chen, and Acs, 1987). Briefly, HepG2.2.15 cells were seeded in 24 well trays, and allowed to grow to confluence prior to addition of drug, as described previously (Simsek et al., 2005). After seven days of treatment, supernatants were harvested and assayed for the presence of the Large Hepatitis B (LHBs) and middle Hepatitis B (MHBs) glycoproteins by electrophoresis through 12% polyacrylamide gels and immunoblotting with a polyclonal antibody that recognizes the pre-S2 region of the LHBs and MHBs proteins (Research Diagnostics Inc., Flanders, N.J.) as described (Simsek et al., 2005). Quantitation was performed using AlphaEase software (Alphalnnotech).

[2] = system: ER glucosidase; details: 6000 uM; cited from earlier work

For `OC[C@H]1NC[C@H](O)[C@@H](O)[C@@H]1O` [DNJ, 1,5-dideoxy-1,5-imino-D-glucitol, reference compound], the “reduction of MHBs and LHBs in culture medium (in words)” value [1] is listed as “antiviral activity at this dose is consistent with previous findings” and the “inhibition of the ER glucosidase” value [2] is listed as “at least 90%”.
